Target: T1, rat CB2 receptor (Rattus norvegicus, UniProt Q9QZN9)
T1 sequence (Q9QZN9 1-360): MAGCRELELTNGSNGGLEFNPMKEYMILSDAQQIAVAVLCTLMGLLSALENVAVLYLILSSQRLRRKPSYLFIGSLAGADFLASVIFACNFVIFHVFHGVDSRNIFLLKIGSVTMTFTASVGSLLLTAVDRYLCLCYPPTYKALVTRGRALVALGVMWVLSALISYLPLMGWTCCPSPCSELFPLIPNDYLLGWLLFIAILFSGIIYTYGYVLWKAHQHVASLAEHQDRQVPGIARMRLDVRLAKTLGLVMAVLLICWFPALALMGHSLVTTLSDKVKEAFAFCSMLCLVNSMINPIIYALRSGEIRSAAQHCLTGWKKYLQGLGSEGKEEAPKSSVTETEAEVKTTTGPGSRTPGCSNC
Assay: cell-based
Assay type: cell-based

SMILES | EC50 | inverse agonist mark, rat CB2 receptor (asterisk at the compound number)
CC(C)(C)NC(=O)c1cnc2c(c1)N(S(=O)(=O)N1CCCCC1)CCO2 [Example 2, N-tert-butyl-1-(piperidin-1-ylsulfonyl)-2,3-dihydro-1H-pyrido[2,3-b][1,4]oxazine-7-carboxamide] | ≤ 30 nM | 
CC(C)CNC(=O)c1cnc2c(c1)N(S(=O)(=O)c1ccc(F)cc1)CCO2 [Example 8, 1-(4-fluorophenyl-sulfonyl)-N-isobutyl-2,3-dihydro-1H-pyrido[2,3-b][1,4]oxazine-7-carboxamide] | ≤ 30 nM | 
O=C(NC1CCCC1)c1cnc2c(c1)N(S(=O)(=O)c1ccc(F)cc1)CCO2 [Example 10] | ≤ 30 nM | 
CC(C)(CO)NC(=O)c1cnc2c(c1)N(S(=O)(=O)c1ccc(C(F)(F)F)cc1)CCO2 [Example 39, N-(1-hydroxy-2-methyl-propan-2-yl)-1-(4-(trifluoromethyl)phenylsulf-onyl)-2,3-dihydro-1H-pyrido[2,3-b][1,4]oxazine-7-carboxamide] | ≤ 30 nM | 
CCN(C(=O)c1cnc2c(c1)N(S(=O)(=O)c1ccc(C(F)(F)F)cc1)CCO2)C(C)(C)C [Example 42, N-tert-butyl-N-ethyl-1-(4-(trifluoromethyl)phenylsulf-onyl)-2,3-dihydro-1H-pyrido[2,3-b][1,4]oxazine-7-carboxamide] | ≤ 30 nM | 
CNC(=O)[C@@H](N(C)C(=O)c1cnc2c(c1)N(S(=O)(=O)c1ccc(F)cc1)CCO2)C(C)(C)C [Example 58, (S)-N-(3,3-dimethyl-1-(methylamino)-1-oxobutan-2-yl)-1-(4-fluorophenylsulfonyl)-N-methyl-2,3-dihydro-1H-pyrido[2,3-b][1,4]oxazine-7-carboxamide] | ≤ 30 nM | 
O=C(NC1(CO)CCCC1)c1cnc2c(c1)N(S(=O)(=O)c1ccc(C(F)(F)F)cc1)CCO2 [Example 67, N-(1-(hydroxymethyl)-cyclopentyl)-1-(4-(trifluoromethyl)phenylsulf-onyl)-2,3-dihydro-1H-pyrido[2,3-b][1,4]oxazine-7-carboxamide] | ≤ 30 nM | 
C[C@H]1CCCCN1C(=O)c1cnc2c(c1)N(S(=O)(=O)c1ccc(C(F)(F)F)cc1)CCO2 [Example 69, (S)-(2-methylpiperidin-1-yl)(1-(4-(trifluoromethyl)-phenylsulfonyl)-2,3-dihydro-1H-pyrido[2,3-b][1,4]oxazin-7-yl)-methanone] | ≤ 30 nM | 
CC(C)(CO)NC(=O)c1cnc2c(c1)N(S(=O)(=O)c1ccc(F)cc1F)CCO2 [Example 102, 1-(2,4-difluorophenylsulfonyl)-N-(1-hydroxy-2-methylpropan-2-yl)-2,3-dihydro-1H-pyrido[2,3-b][1,4]oxazine-7-carboxamide] | ≤ 30 nM | 
CC(C)(O)CNC(=O)c1cnc2c(c1)N(S(=O)(=O)c1ccc(F)c(F)c1)CCO2 [Example 109, 1-(3,4-difluorophenylsulfonyl)-N-(2-hydroxy-2-methylpropyl)-2,3-dihydro-1H-pyrido[2,3-b][1,4]oxazine-7-carboxamide] | ≤ 30 nM | 
O=C(N[C@H]1CCC[C@@H]1O)c1cnc2c(c1)N(S(=O)(=O)c1ccc(Cl)cc1F)CCO2 [Example 111, 1-(4-chloro-2-fluorophenylsulfonyl)-N-((1S,2S)-2-hydroxycyclopentyl)-2,3-dihydro-1H-pyrido[2,3-b][1,4]oxazine-7-carboxamide] | ≤ 30 nM | 
CC(C)(CN1CCOCC1)NC(=O)c1cnc2c(c1)N(S(=O)(=O)c1ccc(Cl)c(Cl)c1)CCO2 [Example 112, 1-(3,4-dichlorophenylsulfonyl)-N-(2-methyl-1-morpholinopropan-2-yl)-2,3-dihydro-1H-pyrido[2,3-b][1,4]oxazine-7-carboxamide] | ≤ 30 nM | 
CN(CC(C)(C)CO)C(=O)c1cnc2c(c1)N(S(=O)(=O)c1ccc(Cl)c(Cl)c1)CCO2 [Example 121, 1-(3,4-dichlorophenylsulfonyl)-N-(3-hydroxy-2,2-dimethylpropyl)-N-methyl-2,3-dihydro-1H-pyrido[2,3-b][1,4]oxazine-7-carboxamide] | ≤ 30 nM | 
CC1(C)COCN1C(=O)c1cnc2c(c1)N(S(=O)(=O)c1ccc(Cl)c(Cl)c1)CCO2 [Example 124, (1-(3,4-dichlorophenyl-sulfonyl)-2,3-dihydro-1H-pyrido[2,3-b][1,4]oxazin-7-yl)(4,4-dimethyl-oxazolidin-3-yl)methanone] | ≤ 30 nM | 
CC(C)(CO)CNC(=O)c1cnc2c(c1)N(S(=O)(=O)c1ccc(Cl)c(Cl)c1)CCO2 [Example 131, 1-(3,4-dichlorophenyl-sulfonyl)-N-(3-hydroxy-2,2-dimethylpropyl)-2,3-dihydro-1H-pyrido[2,3-b][1,4]oxazine-7-carboxamide] | ≤ 30 nM | 
O=C(N[C@H]1CCC[C@H]1O)c1cnc2c(c1)N(S(=O)(=O)c1ccc(Cl)c(Cl)c1)CCO2 [Example 132, 1-(3,4-dichlorophenyl-sulfonyl)-N-((1S,2R)-2-hydroxycyclopentyl)-2,3-dihydro-1H-pyrido[2,3-b][1,4]oxazine-7-carboxamide] | ≤ 30 nM | 

SMILES | EC50 | inverse agonist mark, rat CB2 receptor (asterisk at the compound number)
COC(=O)C(C)(C)NC(=O)c1cnc2c(c1)N(S(=O)(=O)c1ccc(Cl)c(Cl)c1)CCO2 [Example 136, methyl 2-(1-(3,4-dichlorophenylsulfonyl)-2,3-dihydro-1H-pyrido[2,3-b][1,4]oxazine-7-carboxamido)-2-methylpropanoate] | ≤ 30 nM | 
CCC(C)(C)NC(=O)c1cnc2c(c1)N(S(=O)(=O)N1CCOCC1)CCO2 [Example 142, 1-(morpholinosulfonyl)-N-tert-pentyl-2,3-dihydro-1H-pyrido[2,3-b][1,4]oxazine-7-carboxamide] | ≤ 30 nM | 
CC(C)(C)NC(=O)c1cnc2c(c1)N(S(=O)(=O)N1CCCC1)CCO2 [Example 148, N-tert-butyl-1-(pyrrolidin-1-ylsulfonyl)-2,3-dihydro-1H-pyrido[2,3-b][1,4]oxazine-7-carboxamide] | ≤ 30 nM | 
CC(C)(CO)NC(=O)c1cnc2c(c1)N(S(=O)(=O)N1CCCC1)CCO2 [Example 149, N-(1-hydroxy-2-methylpropan-2-yl)-1-(pyrrolidin-1-ylsulfonyl)-2,3-dihydro-1H-pyrido[2,3-b][1,4]oxazine-7-carboxamide] | ≤ 30 nM | 
CC(C)(C)NC(=O)c1cnc2c(c1)N(S(=O)(=O)N1CCC(C(F)(F)F)CC1)CCO2 [Example 150, N-tert-butyl-1-(4-(trifluoromethyl)piperidin-1-ylsulfonyl)-2,3-dihydro-1H-pyrido[2,3-b][1,4]oxazine-7-carboxamide] | ≤ 30 nM | 
CC(C)(CO)NC(=O)c1cnc2c(c1)N(S(=O)(=O)N1CCC(C(F)(F)F)CC1)CCO2 [Example 152, N-(1-hydroxy-2-methylpropan-2-yl)-1-(4-(trifluoromethyl)piperidin-1-ylsulfonyl)-2,3-dihydro-1H-pyrido[2,3-b][1,4]oxazine-7-carboxamide] | ≤ 30 nM | 
CC(C)(CO)CNC(=O)c1cnc2c(c1)N(S(=O)(=O)N1CCC(C(F)(F)F)CC1)CCO2 [Example 155, N-(3-hydroxy-2,2-dimethylpropyl)-1-(4-(trifluoromethyl)piperidin-1-ylsulfonyl)-2,3-dihydro-1H-pyrido[2,3-b][1,4]oxazine-7-carboxamide] | ≤ 30 nM | 
CC(C)(CO)NC(=O)c1cnc2c(c1)N(S(=O)(=O)N1CCC(F)(F)CC1)CCO2 [Example 157, 1-(4,4-difluoropiperidin-1-ylsulfonyl)-N-(1-hydroxy-2-methylpropan-2-yl)-2,3-dihydro-1H-pyrido[2,3-b][1,4]oxazine-7-carboxamide] | ≤ 30 nM | 
CC(C)(C)NC(=O)c1cnc2c(c1)N(S(=O)(=O)N1CCC(F)(F)C1)CCO2 [Example 163, N-tert-butyl-1-(3,3-difluoropyrrolidin-1-ylsulfonyl)-2,3-dihydro-1H-pyrido[2,3-b][1,4]oxazine-7-carboxamide] | ≤ 30 nM | 
CCC(C)(C)NC(=O)c1cnc2c(c1)N(S(=O)(=O)N1CCC(F)(F)C1)CCO2 [Example 164, 1-(3,3-difluoropyrrolidin-1-ylsulfonyl)-N-tert-pentyl-2,3-dihydro-1H-pyrido[2,3-b][1,4]oxazine-7-carboxamide] | ≤ 30 nM | 
CC(C)(CO)NC(=O)c1cnc2c(c1)N(S(=O)(=O)N1CCC(F)CC1)CCO2 [Example 168, 1-(4-fluoropiperidin-1-ylsulfonyl)-N-(1-hydroxy-2-methylpropan-2-yl)-2,3-dihydro-1H-pyrido[2,3-b][1,4]oxazine-7-carboxamide] | ≤ 30 nM | 
CC1CCN(S(=O)(=O)N2CCOc3ncc(C(=O)NCC(C)(C)CO)cc32)CC1 [Example 173, N-(3-hydroxy-2,2-dimethylpropyl)-1-(4-methylpiperidin-1-ylsulfonyl)-2,3-dihydro-1H-pyrido[2,3-b][1,4] oxazine-7-carboxamide] | ≤ 30 nM | 
CC(C)(C)NC(=O)c1cnc2c(c1)N(S(=O)(=O)N1Cc3ccccc3C1)CCO2 [Example 183, N-tert-butyl-1-(isoindolin-2-ylsulfonyl)-2,3-dihydro-1H-pyrido[2,3-b][1,4]oxazine-7-carboxamide] | ≤ 30 nM | 
COC(=O)C1(NC(=O)c2cnc3c(c2)N(S(=O)(=O)c2ccc(Cl)c(Cl)c2)CCO3)CCOCC1 [Example 205, methyl 4-(1-(3,4-dichlorophenylsulfonyl)-2,3-dihydro-1H-pyrido[2,3-b][1,4]oxazine-7-carboxamido)tetrahydro-2H-pyran-4-carboxylate] | ≤ 30 nM | 
CC(C)(C)NC(=O)c1noc(-c2cnc3c(c2)N(S(=O)(=O)c2ccc(F)cc2)CCO3)n1 [Example 214, N-tert-butyl-5-(1-(4-fluoro-phenylsulfonyl)-2,3-dihydro-1H-pyrido[2,3-b][1,4]oxazin-7-yl)-1,2,4-oxadiazole-3-carboxamide] |  | 181, 188, 189, 190, 195, 200, 201, 202, 204, 211*, 214*, 220, 221,

Source: US7960377B2 (priority 2008, dated 2011)
